Data reported in publication PMC9527238, “Glutamate and GABAA receptor crosstalk mediates homeostatic regulation of neuronal excitation in the mammalian brain” (Signal Transduction and Targeted Therapy, 2022).

How the values were obtained:
α1/β3/γ2 GABAAR = biological target: T1, α1/β3/γ2 GABAAR (Rattus norvegicus, UniProt P62813+P63079); assay: Patch clamp, HEK293, β3-containing GABAAR; type: cell-based; settings: wild-type α1/β3/γ2
T1 construct: expressed in transfected cells; host or cells: HEK293

α1β2 GABAARs = biological target: T2, α1β2 GABAARs (Rattus norvegicus, UniProt P62813+P63138); assay: [3H]glutamate binding assay, plasma membranes of HEK293 cells overexpressing α1 and β2; settings: 40 nM [3H]glutamate + 0.4 mM non-radiolabeled competitor
T2 construct: expressed in transfected cells; host or cells: HEK293
Procedure: For membrane preparation, transfected or non-transfected HEK293 cells were washed twice with cold PBS and harvested by scraping into 5 ml cold PBS. Cells were then centrifuged at 1200 × g for 12 min at 4 °C and medium was removed. The washing procedure was repeated twice. Then the cell pellet was re-suspended into 1 ml of 50 mM Tris-HCl buffer (pH 7.4, with protease inhibitor) and homogenized using syringes with 18-G, 21-G and 23-G needles.
To separate the membrane, the homogenate were centrifuged for 20 min at 20,000 × g at 4 °C. Then the pellet was re-suspended into 1 ml of 50 mM Tris-HCl buffer, pH 7.4 and centrifuged again. After repeating this procedure for one more time, the pellet was re-suspended into 1 ml of 50 mM Tris-HCl buffer, pH 7.4 and the protein concentration was measured.
To conduct the binding assay, 100 µg membrane enriched preparation was incubated with 40 nM [3H]-Glutamate in a total volume of 0.5 ml in 50 mM Tris-HCl buffer, pH 7.4 for 1 h on ice. […] Then the reaction was terminated by quickly filtering the solution on Whatman filter paper and washing by 3.5 ml Tris-HCl buffer. Radioactivity was measured in a Beckman liquid scintillation counter.

α1/β1/γ2 GABAAR = biological target: T3, α1/β1/γ2 GABAAR (Rattus norvegicus, UniProt P15431+P62813); assay: Patch clamp, HEK293, β1-containing GABAAR; type: cell-based; settings: wild-type α1/β1/γ2
T3 construct: expressed in transfected cells; host or cells: HEK293

[1] = system: GABAAR-mediated currents, WT mice; assay: Whole-cell recording of CA1 neurons, hippocampal slices of WT mice; type: cell-based, mouse; settings: L-Glu 50 µM
Procedure: We next determined if glutamate-mediated allosteric potentiation of GABAAR function was impaired in hippocampal slices acutely prepared from postnatal 90-day-old KI mice. Whole-cell recordings of CA1 neurons were performed under voltage clamp configuration at a holding potential of −60 mV.
Mice were deeply anesthetized with urethane (1.5 g/kg, i.p.) and transcardially perfused with ice cold sucrose hypertonic cutting solution (in mM: KCl 3.0, NaH2PO4.H2O 1.25, NaHCO3 26, Na-vitamin C 0.4, Na-lactate 2.0, Na-pyruvate 2.0, D-glucose 10.0, Sucrose 220, CaCl2 0.1, MgCl2 2, MgSO4 4.0, pH 7.4, 290–300 mOsm/l) prior to decapitation as described previously.[47] After decapitation, the brain was rapidly removed and transferred to the ice cold cutting solution bubbled with 95% O2 and 5% CO2, and acute coronal brain slices (400 μm) were prepared on a Leica vibratome (VT1200S, Germany). All brain slices were placed into a standard artificial cerebral spinal fluid (ACSF) (in mM: NaCl 124, KCl 2.8, NaH2PO4.H2O 1.25, NaHCO3 26, Na-vitamin C 0.4, Na-lactate 2.0, Na-pyruvate 2.0, D-glucose 10.0, CaCl2 2, MgSO4 1.2, pH 7.4, 290–300 mOsm/l) incubated at 35 °C for 2 h prior to recording. Field excitatory postsynaptic potential (fEPSP) recordings were performed under current-clamp mode using HEKA EPC10 patch-clamp amplifier (HEKA Electronic, Lambrecht/Pfalz, Germany). […]

α1β2γ2R197E GABAAR = biological target: T4, α1β2γ2R197E GABAAR (Rattus norvegicus, UniProt P18508+P62813+P63138, R235E); assay: Patch clamp, HEK293, mutant GABAAR; type: cell-based
T4 construct: expressed in transfected cells; host or cells: HEK293
Procedure: (§1) However, for the GABAAR containing only α and β subunits, there are two α^+/β^− interfaces, with potentially two glutamate-binding pockets (Fig. 5a; Right).
(§2) HEK293 cells were cultured in DMEM (Invitrogen) supplemented with 10% fetal bovine serum. Cells were grown to 40–60% confluence and transiently transfected using Lipofectamine 2000 (Invitrogen) with 1:0.5–1 plasmid/lipid ratio. Cells were transfected with a pBK-CMV expression vector containing a rat recombinant GABAAR α, β or γ subunits. Co-transections were done with a plasmid ratio of 1:1 αβ and 2:2:1 for αβγ subunit combinations, respectively. pcDNA3.1-GFP was also co-transfected along with GABAAR subunits as a transfected marker in order to facilitate the visualization of the transfected cells during electrophysiological experiments. Cells were re-plated on glass coverslips after 15–20 h transfection and were cultured for an additional 15–24 h before whole-cell patch-clamp recordings.
(§3) The site-directed mutagenesis of α, β or γ subunits were performed by using the QuikChange method (Stratagene). […] Wild-type or mutant subunits were transfected in HEK293 cells and subjected to electrophysiology examinations.
(§4) Whole-cell patch-clamp recordings were performed under voltage-clamp mode using an Axopatch 200B or 1D patch-clamp amplifier (Molecular Devices) on HEK293 cells and cultured neurons. Whole-cell currents were recorded at a holding potential of −60 mV, and signals were filtered at 2 kHz, digitized at 10 kHz (Digidata 1322 A). Recording pipettes (3–5 MΩ) were filled with the intracellular solution that contained (mM): CsCl 140, HEPES 10, Mg-ATP 4, QX-314 5, pH 7.20; osmolarity, 290–295 mOsm. BAPTA (10 mM) was added in the intracellular solution. The coverslips were continuously superfused with the extracellular solution containing (mM): NaCl 140, KCl 5.4, HEPES 10, MgCl2 1.0, CaCl2 1.3, glucose 20, pH 7.4; osmolarity, 305–315 mOsm. […] Dose–response curves were created by fitting data to Hill equation: I = Imax/[1 + (EC50/[A])^n], where I is the current, Imax is the maximum current, [A] is a given concentration of agonist, n is the Hill coefficient. […] All experiments were performed at room temperature.

α1β2γ2E168K GABAAR = biological target: T5, α1β2γ2E168K GABAAR (Rattus norvegicus, UniProt P18508+P62813+P63138, E206K); assay: Patch clamp, HEK293, mutant GABAAR; type: cell-based
T5 construct: expressed in transfected cells; host or cells: HEK293
Procedure: as §1, §2, §3, §4

N[C@@H](CCC(=O)O)C(=O)O [glutamate, Glutamate]
potentiation of GABA-induced currents by glutamate (α1/β3/γ2 GABAAR): could also potentiate GABA-induced currents | [3H]glutamate binding activity in presence of competitor (α1β2 GABAARs): 262.2 ± 47.8 CPM | potentiation of GABA-induced currents by glutamate (α1/β1/γ2 GABAAR): could also potentiate GABA-induced currents | GABAAR-mediated IPSC currents relative to baseline [1]: 153.0 ± 9.5% | Glu-induced potentiation, % of wild-type α1β2 (α1β2γ2R197E GABAAR; Glu 100 μM): 92.7 ± 22.0% | Glu-induced potentiation, % of wild-type α1β2γ2 (α1β2γ2R197E GABAAR; Glu 100 μM): 204.9 ± 48.7% | Glu-induced potentiation, % of wild-type α1β2 (α1β2γ2R197E GABAAR; Glu 1 mM): 82.4 ± 16.9% | Glu-induced potentiation, % of wild-type α1β2γ2 (α1β2γ2R197E GABAAR; Glu 1 mM): 190.9 ± 39.2% | Glu-induced potentiation, % of wild-type α1β2γ2 (α1β2γ2E168K GABAAR; Glu 100 μM): 169.4 ± 32.5% | Glu-induced potentiation, % of wild-type α1β2γ2 (α1β2γ2E168K GABAAR; Glu 1 mM): 225.7 ± 51.9%
